The values that follow come from ChEMBL document CHEMBL1125315, “Synthesis and evaluation of 2-pyridinone derivatives as HIV-1-specific reverse transcriptase inhibitors. 2. Analogues of 3-aminopyridin-2(1H)-one” (J Med Chem, 1992).

Where only a bound is given, the exact number is not on record here.

One experiment deals with H9. Briefly: Compound was evaluated for antiviral activity in H9 cells. Cell culture inhibitor concentration (CIC95) is defined as uM. The experiment is classed as functional. Particulars: Homo sapiens, read-out: CIC95.
`CCc1cc(NCc2nc3c(C)ccc(C)c3o2)c(O)nc1C`: the IC95 worked out at 100 nM.

Another experiment concerns H9. The experiment in a line: Compound was evaluated for antiviral activity against H9 cells. Cell culture inhibitor concentration (CIC95) is defined as those which inhibited by >95% the spread of HIV-1 IIIb infection in susceptible cell culture. It counts as functional. Particulars: Homo sapiens, read-out: CIC95.
In the case of `Cc1cn([C@H]2C[C@H](N=[N+]=[N-])[C@@H](CO)O2)c(=O)[nH]c1=O` [ZIDOVUDINE], the IC95 came out at 20000 nM.

A further experiment deals with MT4. The experiment in a line: Compound was evaluated for antiviral activity against MT-4 cells. Cell culture inhibitor concentration (CIC95) is defined as those which inhibited by >95% the spread of HIV-1 IIIb infection in susceptible cell culture; value ranges from 0.012-0.025 uM. It counts as functional. The following applies: Homo sapiens, read-out: CIC95.
With `Cc1cn([C@H]2C[C@H](N=[N+]=[N-])[C@@H](CO)O2)c(=O)[nH]c1=O` [ZIDOVUDINE], the IC95 was 12 nM.

The subject of a further experiment is MT4. Briefly: Compound was evaluated for antiviral activity in MT-4 cells. Cell culture inhibitor concentration (CIC95) is defined as concentration which inhibited >95% the spread of HIV-1 IIIb infection in susceptible cell culture; value ranges from 0.025-0.050 uM. Particulars: Homo sapiens, read-out: CIC95. It counts as functional.
As to `CCc1cc(NCc2nc3c(Cl)ccc(Cl)c3o2)c(O)nc1C` [L-697661], the IC95 was 25 nM.

Regarding `CCc1cc(NCc2nc3c(C)ccc(C)c3o2)c(O)nc1C`, the IC95 worked out at 25 nM.

A further experiment concerns the target Human immunodeficiency virus type 1 reverse transcriptase (Human immunodeficiency virus 1, UniProt Q72547). Briefly: In vitro HIV-1 RT inhibitory activity using rC.dG as template-primer.
Details: not given
Consider `CCc1cc(NCc2ncc(-c3ccccc3)o2)c(=O)[nH]c1C`, for which the IC50 (in general, the concentration that inhibits the measured activity by half) is 2350 nM.

`CCc1cc(NCc2nc3ccc(C)cc3o2)c(=O)[nH]c1C` returned an IC50 of 1650 nM. In the case of `CCc1cc(NCc2nc3cccc(CC)c3o2)c(O)nc1C`, the IC50 was 260 nM. On the same count and under the same terms, next, `CC(=O)c1cc(NCc2nc3c(Cl)ccc(Cl)c3o2)c(O)nc1C`: 300 nM; `CCc1cc(NC(C)c2cc3ccccc3o2)c(=O)[nH]c1C` (configuration not stated): 970 nM; `Cc1[nH]c(=O)c(NCc2nc3ccccc3o2)cc1S(C)(=O)=O`: 1150 nM. Regarding `CCc1cc(NCc2ccc3ccccc3c2)c(=O)[nH]c1C`, the IC50 was found to be 460 nM. Against the preceding compound, the IC50 is about 2.5-fold lower. The same measure, in the same setting: the value for `CCc1cc(NCc2nc3ccccc3c(=O)[nH]2)c(=O)[nH]c1C` was 2500 nM; that for `CCc1cc(NCc2ccoc2)c(O)nc1C` was 145000 nM; that for `CCc1cc(NCc2cc3ccccc3o2)c(O)nc1C` was 330 nM.

In turn, `Cc1[nH]c(=O)c(NCc2nc3c(Cl)ccc(Cl)c3o2)cc1C(C)O` (configuration not stated) came in with an IC50 of 1050 nM. In the case of `CCc1cc(NCc2ccccn2)c(O)nc1C`, the IC50 was 15000 nM. Against the preceding compound, the IC50 is about 14-fold higher. In turn, `CCc1cc(NCc2nc3c(O)cccc3o2)c(=O)[nH]c1C` registered an IC50 of 440 nM. Against the preceding compound, the IC50 is about 34-fold lower. Regarding `CCc1cc(NCc2cc3cnccc3o2)c(=O)[nH]c1C`, the IC50 is 32300 nM. Still for that read-out and setting: the value for `CCc1cc(NCc2nc3cc4ccccc4cc3o2)c(=O)[nH]c1C` was 10000 nM.

The compound `CCc1cc(NCc2nc3cccc(Cl)c3o2)c(=O)[nH]c1C` had an IC50 of 65 nM. Same read-out and setting: the value for `CCc1cc(NCc2ccc3ccccc3c2)c(=S)[nH]c1C` was 300 nM; that for `CCc1cc(NCc2c[nH]c3ccccc23)c(O)nc1C` was 22500 nM.

Consider `CCc1cc(NCc2cc3c(Cl)ccc(Cl)c3o2)c(O)nc1C`, for which the IC50 came out at 57 nM.

`CCc1cc(NCc2cnc3ccccc3c2)c(=O)[nH]c1C`: it took 335 nM to reach half-maximal inhibition (IC50). On the same count and under the same terms, the value for `CCc1cc(NCc2nc3cc(C)ccc3o2)c(O)nc1C` was 1250 nM; that for `CCc1cc(NCc2ccc3ccccc3n2)c(=O)[nH]c1C` was 530 nM. Still for that read-out and setting: next, `CCc1cc(NCc2nc3c(o2)CCCC3)c(=O)[nH]c1C`: 280 nM.

Compound `CCc1cc(NCc2oc3ccccc3c2C)c(=O)[nH]c1C` displayed an IC50 of 1950 nM. On to `CCc1cc(NCc2nc3ncccc3o2)c(O)nc1C`, for which the IC50 amounted to 1900 nM. The same measure, in the same setting: next, `CCc1cc(NCc2nc3c([N+](=O)[O-])cccc3o2)c(O)nc1C`: 24500 nM; `CCc1cc(NCc2nc3c(F)ccc(Cl)c3o2)c(=O)[nH]c1C`: 105 nM. Still for that read-out and setting: next, `CCc1cc(NCc2nc3c(F)cccc3o2)c(=O)[nH]c1C`: 110 nM; `CCc1cc(NCc2nc3c(N)cccc3o2)c(O)nc1C`: 67000 nM. As to `CCc1cc(NCc2ccco2)c(=O)[nH]c1C`, 29000 nM corresponded to half-maximal inhibition (IC50). On the same count and under the same terms, next, `CCSc1cc(NCc2nc3ccccc3o2)c(=O)[nH]c1C`: 430 nM.

Consider `CCc1cc(NCc2cc3ccccc3s2)c(O)nc1C`, for which the IC50 amounted to 500 nM.

`O=c1[nH]c2ccccc2cc1NCc1ccc2ccccc2c1`: the IC50 is above 300000 nM. Same read-out and setting: next, `CCc1cc(NCc2nc3cccc(F)c3o2)c(=O)[nH]c1C`: 92 nM; `CCc1cc(NCc2nc3ccc(F)cc3o2)c(=O)[nH]c1C`: 1250 nM; `CCc1cc(NCc2cc3ccncc3o2)c(O)nc1C`: 105000 nM.

Regarding `CCc1cc(NCc2nc3c(ccc4ccccc43)o2)c(O)nc1C`, 2700 nM corresponded to half-maximal inhibition (IC50). Same read-out and setting: the value for `CCc1cc(N(C)Cc2nc3c(C)ccc(C)c3o2)c(=O)[nH]c1C` was 103 nM; that for `Cc1nc(O)c(NCc2nc3ccccc3o2)cc1[S+](C)[O-]` (configuration not stated) was 31500 nM; that for `Cc1cc(C)c(NCc2nc3c(Cl)ccc(Cl)c3o2)c(=O)[nH]1` was 2850 nM. The same measure, in the same setting: next, `CCc1cc(NCc2nc3c(C)cccc3o2)c(O)nc1C`: 120 nM; `CCc1cc(NCc2nc3c(OC)cccc3o2)c(=O)[nH]c1C`: 180 nM; `CCc1cc(NC(C)c2ccc3ccccc3c2)c(O)nc1C` (configuration not stated): 1130 nM. Take `CCc1cc(NCc2cccnc2)c(=O)[nH]c1C`: inhibition was half-maximal at 300000 nM (IC50). As to `CCc1cc(NCc2ccc3ccccc3c2)c(=O)n(C)c1C`, the half-maximal inhibitory concentration (IC50) was 11000 nM.

In turn, `CCc1c(C)[nH]c(=O)c(NCc2nc3ccccc3o2)c1C` displayed an IC50 of 600 nM. In the case of `CCc1cc(NCc2nc3cc(F)ccc3o2)c(=O)[nH]c1C`, the midpoint of inhibition, the IC50, lay at 470 nM.

`CCc1cc(N(C)Cc2cc3c(Cl)ccc(Cl)c3o2)c(=O)[nH]c1C` showed an IC50 of 1050 nM.

As for `CCc1cc(NCc2nc3ccccc3[nH]2)c(O)nc1C`, half-maximal inhibition (IC50) required 7580 nM. For `CCOC(=O)c1cc(NCc2nc3ccccc3o2)c(=O)[nH]c1C`, inhibition was half-maximal at 1750 nM (IC50). Still for that read-out and setting: next, `C=Cc1cc(NCc2nc3c(Cl)ccc(Cl)c3o2)c(=O)[nH]c1C`: 23 nM; `CCc1cc(NCc2cc3ccccc3[nH]2)c(=O)[nH]c1C`: 4400 nM; `CCc1cc(N(C)Cc2nc3c(Cl)ccc(Cl)c3o2)c(=O)[nH]c1C`: 58 nM. With `CCc1cc(NCc2nc3c(Cl)cccc3o2)c(O)nc1C`, the IC50 was determined as 150 nM. In turn, `CCc1cc(NCc2nc3c(F)ccc(F)c3o2)c(=O)[nH]c1C` had an IC50 of 70 nM.

Take `CSc1cc(NCc2nc3ccccc3o2)c(O)nc1C`: 190 nM corresponded to half-maximal inhibition (IC50). In the case of `CCc1cc(NCc2coc3ccccc3c2=O)c(=O)[nH]c1C`, the IC50 stood at 1100 nM.

For the compound `CSc1cc(NCc2nc3c(Cl)ccc(Cl)c3o2)c(O)nc1C`, the IC50 was 43 nM. Still for that read-out and setting: next, `CCc1cc(NCc2cccc3ccccc23)c(=O)[nH]c1C`: 2100 nM. As to `COc1cc(NCc2nc3c(Cl)ccc(Cl)c3o2)c(O)nc1C`, half-maximal inhibition (IC50) was put at 115 nM. Same read-out and setting: the value for `CCc1cc(N(CC)Cc2nc3c(Cl)ccc(Cl)c3o2)c(O)nc1C` was 654 nM; that for `CCc1cc(NCc2cc3cccc(Cl)c3o2)c(O)nc1C` was 335 nM. Compound `CCc1cc(NCc2nc3c(Cl)ccc(Cl)c3o2)c(S)nc1C` yielded a half-maximal inhibitory concentration (IC50) of 42 nM.

`CCc1cc(NCc2ccccc2)c(=O)[nH]c1C` gave an IC50 of 5330 nM.

The test system of a further experiment is MT4. The experiment in a line: Compound was evaluated for antiviral activity in MT-4 cells. Cell culture inhibitor concentration (CIC95) is defined as concentration which inhibited >95% the spread of HIV-1 IIIb infection in susceptible cell culture. It counts as functional. Particulars: Homo sapiens, read-out: CIC95.
`CCc1cc(NCc2nc3ccccc3o2)c(O)nc1C`: the IC95 was found to be 200 nM.

Consider `CCc1cc(NCc2cc3c(Cl)ccc(Cl)c3o2)c(O)nc1C`, for which the IC95 was 50 nM. On the same count and under the same terms, next, `CSc1cc(NCc2nc3c(Cl)ccc(Cl)c3o2)c(O)nc1C`: 100 nM.
